In ChEMBL document CHEMBL5604062, “ASAP - ZIKV NS2B-NS3 protease fluorescence dose response” (2024):
“And” between values parts separate entries of the source, which are not always exact repeats. Equal values may be shown once.

biological target: Nonstructural protein 3 (Zika virus, UniProt A0A024AXB9); assay: Functional biochemical assay to identify treatments for viral infectious disease that targets Zika NS2B-NS3 protease. Utilizing a direct enzyme activity measurement method, reading the fluorescence intensity is used to characterize the relative potency of inhibitors as IC50.; design: species or system PRVABC59
Sequence (A0A024AXB9 whole entry): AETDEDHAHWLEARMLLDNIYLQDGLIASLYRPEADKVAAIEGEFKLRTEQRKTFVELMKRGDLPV

Structure (SMILES) | IC50
CN(c1ccc2c(c1)CNC2)[C@H](C(=O)NCC(F)F)c1cc(Cl)cc(C2CC2)c1 | 32 nM and 17 nM
Cc1c(C(=O)Nc2cc(C(=O)N3CCn4nccc43)ccn2)cc(C2CC2)n1C | > 25000 nM
COC1CCN(C(=O)c2ccnc(NC(=O)c3cc(C4CC4)n(C)c3C)c2)CC1 | > 25000 nM
O=C(NCC(F)F)[C@H](Nc1ccc2c(c1)CNC2)c1cc(Cl)ccc1Sc1ccccc1 | 494 nM
O=C1Cc2c(cccc2C(=O)Nc2cc3c(cn2)OCCO3)N1 | > 25000 nM
Cc1c(C(=O)Nc2cc(C(=O)N[C@H]3CNC(=O)C3)ccn2)cc(C2CC2)n1C | > 25000 nM
Cc1c(C(=O)Nc2cc(C(=O)N3CCC[C@H]3C(N)=O)ccn2)cc(C2CC2)n1C | > 25000 nM
COC1CN(C(=O)c2ccnc(NC(=O)c3cc(C4CC4)n(C)c3C)c2)C1 | > 25000 nM
Cc1cc(C(=O)Nc2ccc3c(c2)CNC3)cc2nc[nH]c12 | 121 nM
O=C(Nc1ccc2c(c1)CNC2)c1ccc2[nH]cc(C3CCNCC3)c2c1 | 797 nM and 1060 nM
COCc1cc(Cl)cc([C@H](Nc2ccc3c(c2)CNC3)C(=O)NCC(F)F)c1 | 27 nM and 14 nM
O=C(NCC(F)F)[C@H](Nc1ccc2c(c1)CNC2)c1cc(Cl)ccc1Cl | 232 nM
N#Cc1ccc(-c2nc3c(C(=O)Nc4ccc5c(c4)CNC5)cc(F)cc3[nH]2)cc1 | 14 nM and 13 nM and 10 nM
O=C(Nc1cc(-c2cccnc2)ccn1)c1cc(C2CC2)[nH]c(=O)c1 | > 25000 nM
C=CC[C@H]1c2ccc(NC(=O)c3cc(Br)cc4[nH]ccc34)cc2CN1C(=O)OC(C)(C)C | > 25000 nM
COc1cccc(-c2nc3c(C(=O)Nc4ccc5c(c4)CNC5)cc(F)cc3[nH]2)c1 | 46 nM and 42 nM and 25 nM
CCNC(=O)c1ccnc(NC(=O)c2cc(C3CC3)n(C)c2C)c1 | > 25000 nM
O=C1Cc2c(cccc2C(=O)N[C@H]2CCC[C@@H](C(=O)NC3CC3)C2)N1 | > 25000 nM
O=C1Cc2c(cccc2C(=O)N[C@H]2COc3cc(Br)cnc32)N1 | > 25000 nM
O=C(Nc1ccc2c(c1)CNC2)c1cc(F)cc2[nH]c(CC[C@H]3CCCOC3)nc12 | 135 nM
O=C(NCC(F)F)[C@H](Nc1ccc2c(c1)CNC2)c1cccc(Cl)c1 | 82 nM and 66 nM
O=C1Cc2c(cccc2C(=O)Nc2ccn(C[C@H]3CCOC3)n2)N1 | > 25000 nM
Cc1cc(N2CCC(NC(=O)c3cccc4c3CC(=O)N4)CC2)[nH]n1 | > 25000 nM

Structure (SMILES) | IC50
CCO[C@@H]1CC[C@H]1NC(=O)c1cccc2c1CC(=O)N2 | > 25000 nM
N[C@H]1COC[C@H]1n1cc(C(=O)Nc2cc(-c3cccnc3)ccn2)cn1 | > 25000 nM
O=C1Cc2c(cccc2C(=O)NC[C@H]2C[C@@H](n3cccn3)C2)N1 | > 25000 nM
O=C1Cc2c(cccc2C(=O)N[C@H]2CCc3ncsc3C2)N1 | > 25000 nM
Cc1c(C(=O)Nc2cc(C(=O)N[C@H]3CCOC3)ccn2)cc(C2CC2)n1C | > 25000 nM
Cc1c(C(=O)Nc2cc(C(=O)N3C[C@@H]4[C@H](O)[C@@H]4C3)ccn2)cc(C2CC2)n1C | > 25000 nM
Cc1c(C(=O)Nc2cc(C(=O)N3CC[C@H](C(N)=O)C3)ccn2)cc(C2CC2)n1C | > 25000 nM
CCOCC1(c2nc3c(C(=O)Nc4ccc5c(c4)CNC5)cc(F)cc3[nH]2)CC1 | 137 nM
O=C1Cc2c(cccc2C(=O)NC2CCC3(CC2)COC3)N1 | > 25000 nM
NCc1cccc(-c2csc3cc(C(=O)Nc4ccc5c(c4)CNC5)ccc23)c1 | 1710 nM and 1410 nM
O=C(Nc1ccc2c(c1)CNC2)c1cc(F)cc2[nH]c(-c3cccc(F)c3)nc12 | 36 nM (2×) and 22 nM
O=C1Cc2c(cccc2C(=O)N[C@H]2C[C@@H](c3ncc[nH]3)C2)N1 | > 25000 nM
Cc1c(C(=O)Nc2cc(C(=O)N[C@H]3CCNC3=O)ccn2)cc(C2CC2)n1C | > 25000 nM
Cc1c(C(=O)Nc2cc(C(=O)N3CC[C@H]3CO)ccn2)cc(C2CC2)n1C | > 25000 nM
Cc1nc(C2(NC(=O)c3cccc4c3CC(=O)N4)CCC2)no1 | > 25000 nM
C[C@H]1C[C@H]1c1cc(C(=O)Nc2cc(-c3cccnc3)ccn2)no1 | > 25000 nM
CC(C)n1cnc2cc(C(=O)Nc3ccc4c(c3)CNC4)ccc21 | > 25000 nM
Cc1cccc(-c2nc3c(C(=O)Nc4ccc5c(c4)CNC5)cc(F)cc3[nH]2)c1 | 112 nM and 159 nM
Cc1ccccc1-c1nc2c(C(=O)Nc3ccc4c(c3)CNC4)cc(F)cc2[nH]1 | 31 nM (2×) and 18 nM
O=C1Cc2c(cccc2C(=O)NC2CCN(c3nccs3)CC2)N1 | > 25000 nM
Cc1c(C(=O)Nc2cc(C(=O)Nc3cccnc3)ccn2)cc(C2CC2)n1C | > 25000 nM
O=C(NCC(F)F)[C@H](Nc1ccc2c(c1)CNC2)c1cccc2c1CCC2 | 3620 nM
O=C(NCC(F)F)[C@H](Nc1ccc2c(c1)CNC2)c1cc(Cl)cc(Cl)c1Cl | 69 nM and 65 nM

Structure (SMILES) | IC50
CCc1cc2c(cc1NC(=O)c1cc(F)cc3[nH]ncc13)CNC2 | 140 nM
CC1(NC(=O)c2cccc3c2CC(=O)N3)CCOCC1 | > 25000 nM
O=C(Nc1ccc2c(c1)CNC2)c1ccc2c(C3=CCNCC3)csc2c1 | 500 nM and 540 nM
COc1ccc(Cl)cc1[C@H](Nc1ccc2c(c1)CNC2)C(=O)NCC(F)F | 61 nM and 53 nM
O=C1Cc2c(cccc2C(=O)N[C@H]2CCC23CCOCC3)N1 | > 25000 nM
Cc1c(C(=O)Nc2cc(C(=O)N3CC[C@H](O)C3)ccn2)cc(C2CC2)n1C | > 25000 nM
O=C1Cc2c(cccc2C(=O)Nc2ccc(-c3cccnc3)cn2)N1 | > 25000 nM
CS(=O)(=O)c1cc2c(cc1NC(=O)c1cc(F)cc3[nH]ncc13)CNC2 | 200 nM
Cc1c(C(=O)Nc2cc(C(=O)N3CC[C@H](CO)C3)ccn2)cc(C2CC2)n1C | > 25000 nM
COc1ccccc1Cn1cnc2cc(C(=O)Nc3ccc4c(c3)CNC4)ccc21 | > 25000 nM
Cc1c(C(=O)Nc2cc(C(=O)N3CC(CO)C3)ccn2)cc(C2CC2)n1C | > 25000 nM
C[C@H](NC(=O)c1cccc2c1CC(=O)N2)c1cccc(S(C)(=O)=O)c1 | > 25000 nM
O=C(NCC(F)F)[C@H](Nc1ccc2c(c1)CNC2)c1cc(Cl)cc2c1CCC2 | 51 nM and 34 nM
NCCc1cc(C(=O)Nc2cc(-c3cccnc3)ccn2)no1 | > 25000 nM
O=C(NCC(F)F)[C@H](Nc1ccc2c(c1)CNC2)c1cc(Cl)cc2ccoc12 | 28 nM and 18 nM
Cc1c(C(=O)Nc2cc(C(=O)N(C)[C@H]3C[C@H](O)C3)ccn2)cc(C2CC2)n1C | > 25000 nM
Cc1c(C(=O)Nc2cc(C(=O)N3Cc4cn[nH]c4C3)ccn2)cc(C2CC2)n1C | > 25000 nM
O=C(Nc1ccc2c(c1)CNC2)c1cccc2c1[C@]1(CCN(C(=O)OCc3ccccc3)C1)C(=O)N2 | 243 nM
CNC(=O)C[C@H]1CC[C@@H](NC(=O)c2cccc3c2CC(=O)N3)CC1 | > 25000 nM
O=C1Cc2c(cccc2C(=O)N[C@H]2C[C@H](c3ccon3)C2)N1 | > 25000 nM
O=C1Cc2c(cccc2C(=O)N[C@H]2CCSC3(CCOCC3)C2)N1 | > 25000 nM
O=C1Cc2c(cccc2C(=O)NC2(c3ccc(O)nc3)CC2)N1 | > 25000 nM
CO[C@H]1CCCN(C(=O)c2ccnc(NC(=O)c3cc(C4CC4)n(C)c3C)c2)C1 | > 25000 nM

Structure (SMILES) | IC50
Cn1ccc(-c2cc(F)cc(C(=O)Nc3ccc4c(c3)CNC4)c2)cc1=O | 104 nM
NC(=O)N1CCc2ccc(NC(=O)c3cccc4c3CC(=O)N4)cc21 | > 25000 nM
Cc1[nH]nc2c1CC[C@H](NC(=O)c1cccc3c1CC(=O)N3)C2 | > 25000 nM
COc1cc(C#N)cc([C@H](Nc2ccc3c(c2)CNC3)C(=O)NCC(F)F)c1 | 42 nM and 31 nM
N#Cc1csc2cc(C(=O)Nc3ccc4c(c3)CNC4)ccc12 | 466 nM
C=CCNC(=O)C1(NC(=O)c2cccc3c2CC(=O)N3)CCCCC1 | > 25000 nM
O=C1Cc2c(cccc2C(=O)N[C@H]2C[C@H](Cn3ccnc3)C2)N1 | > 25000 nM
Cc1c(C(=O)Nc2cc(C(=O)N3CCC(O)CC3)ccn2)cc(C2CC2)n1C | > 25000 nM
Cc1c(C(=O)Nc2cc(C(=O)N3CCNC(=O)C3)ccn2)cc(C2CC2)n1C | > 25000 nM
Cn1nccc1-c1cc(NC(=O)c2cc(F)cc3[nH]ncc23)cc2c1CNC2 | 42 nM and 29 nM
O=C1Cc2c(cccc2C(=O)N[C@H]2CC[C@@H](n3ccnn3)CC2)N1 | > 25000 nM
Cc1c(C(=O)Nc2cc(C(N)=O)ccn2)cc(C2CC2)n1C | > 25000 nM
O=C1Cc2c(cccc2C(=O)NC2CC3(CCOCC3)C2)N1 | > 25000 nM
O=C(Nc1ccc2c(c1)CNC2)c1cc(F)cc2[nH]c(CCc3cccnc3)nc12 | 131 nM
O=C1Cc2c(cccc2C(=O)N[C@H]2CCc3cnccc32)N1 | > 25000 nM
Cc1c(C(=O)Nc2cc(C(=O)N3CCOC[C@H](O)C3)ccn2)cc(C2CC2)n1C | > 25000 nM
C[C@H](NC(=O)c1cccc2c1CC(=O)N2)c1cc2cnccc2o1 | > 25000 nM
Cc1c(C(=O)Nc2cc(C(=O)N3CCOCC3)ccn2)cc(C2CC2)n1C | > 25000 nM
Cc1c(C(=O)Nc2cc(C(=O)N3CCCNC(=O)C3)ccn2)cc(C2CC2)n1C | > 25000 nM
C[C@H](NC(=O)c1cccc2c1CC(=O)N2)c1ccncc1F | > 25000 nM
Cc1c(C(=O)Nc2cc(Br)c3c(c2)COC3)cc(C2CC2)n1C | > 25000 nM
Cn1nc(CNc2ccc3c(c2)CNC3)cc1C1CC1 | 10900 nM
O=C1Cc2c(cccc2C(=O)NC[C@H]2CCCN(c3nccs3)C2)N1 | > 25000 nM
